Measured values reported in patent US5382670A, “Platelet activating factor antagonists” (priority 1993, dated 1995).
Where a name gives a salt, the structure may show the parent alone.

Target: PAF receptor (Oryctolagus cuniculus, UniProt G1TEI7)
Test: PAF receptor binding assay: inhibition of specific [3H]C18-PAF binding to rabbit platelet membranes
Settings: 0.6 nM [3H]C18-PAF, 60 min, 22-23 °C, Ki from IC50 (Cheng and Prusoff), read-out: Ki (PAF Receptor Binding Activity)
Method: The ability of representative compounds of the present invention to inhibit PAF activity was determined in an in vitro test using the following method.
Citrated whole rabbit blood was obtained from Pel-Freez (Rogers, AR). Rabbit platelets were prepared by centrifugation and washing. The platelets were lysed by freeze-thawing and sonication; platelet membranes were prepared by centrifugation and washing. Final membrane preparations were stored frozen in 10 mM Tris/5 mM MgCl2 /2 mM EDTA (TME buffer, pH 7.0) with 0.25M sucrose added for membrane stabilization.
The standard PAF receptor binding assay contained 10 μg platelet membrane protein, 0.6 nM [^3 H]C18 -PAF (from Amersham or New England Nuclear; specific activity 120-180 Ci/mmol), with and without test compound, in "binding buffer" consisting of TME with 0.25% bovine serum albumin added (Sigma, RIA grade). The final volume of the assay was 100 μl. The assay was conducted in Millititre-GV™ (Millipore Corp.) filtration plates; incubation time was for 60 minutes at room temperature (22°-23° C.). "Specific binding" was operationally defined as the arithmetic difference between "total binding" of 0.6 nM [^3 H]C18 -PAF (in the abasence of added PAF) and "nonspecific binding" (in the presence of 1 μM PAF). After the prescribed incubation, platelet membranes were filtered under vacuum, and washed with 1 milliliter of "binding buffer". The filters were dried and removed. The bound radioactivity was quantitated with a Berthold TLC-Linear Analyzer model LB2842.
Dose-response curves of inhibition of specific [^3 H]C18 -PAF binding by test compounds were conducted in triplicate, with at least four doses covering the active range. Experiments were repeated at least once. IC50 values (concentration producing 50% inhibition) were determined by point-to-point evaluation. Ki values of inhibitory binding constants were calculated according to the method of Cheng and Prusoff [Biochem. Pharmacol. 22 (1973) 3099-3108] whereby [formula]
The values of Ki for representative compounds of the present invention appear in Table 1.

Chain of PAF receptor (G1TEI7 1-342): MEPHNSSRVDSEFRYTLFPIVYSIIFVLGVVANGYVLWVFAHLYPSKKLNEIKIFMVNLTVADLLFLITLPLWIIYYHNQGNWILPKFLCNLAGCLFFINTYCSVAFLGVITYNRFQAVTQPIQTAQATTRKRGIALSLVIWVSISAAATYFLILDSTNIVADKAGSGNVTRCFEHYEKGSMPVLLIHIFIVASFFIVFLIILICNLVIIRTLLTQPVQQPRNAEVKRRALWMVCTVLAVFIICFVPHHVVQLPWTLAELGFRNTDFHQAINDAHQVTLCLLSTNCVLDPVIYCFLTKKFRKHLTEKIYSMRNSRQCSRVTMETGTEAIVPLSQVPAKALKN

| Ki [nM] | SMILES |
| --- | --- |
| 700 | CN(C)C(=O)n1cc(C(=O)C2CSC(c3cccnc3)N2C(N)=O)c2ccc(OCc3ccccc3)cc21 (stereo not drawn) [Example 111, 1-dimethylcarbamoyl-3-[2-(3-pyridinyl)-3-carbamoylthiazolid-4-oyl]-6-phenylmethoxyindole] |
| 18000 | CC(=O)N1C(C(=O)c2c[nH]c3ccccc23)CSC1c1cccnc1 (stereo not drawn) [Example 98, 3-[2-(3-pyridinyl)-3-acetylthiazolid-4-oyl]indole] |
| 9 | CC(C)(C)C(=O)n1cc(C(=O)C2CSC(c3cccnc3)N2)c2ccccc21 (stereo not drawn) [Example 47, 1-tert-butoyl-3-[2-(3-pyridinyl)thiazolid-4-oyl]indole] |
| 80 | CN(C)C(=O)n1cc(C(=O)[C@@H]2CS[C@@H](c3cccnc3)N2C(=O)C(F)(F)F)c2ccccc21 (relative stereo) [Example 106, trans-1-dimethylcarbamoyl-3-[2-(3-pyridinyl)-3-trifluoroacetylthiazolid-4-oyl]indole] |
| 37 | CN(C)C(=O)n1cc(C(=O)C2CSC(c3cccnc3)N2C=O)c2ccccc21 (stereo not drawn) [Example 91, 1-dimethylcarbamoyl-3-[2-(3-pyridinyl)-3-formylthiazolid-4-oyl]indole] |
| 1 | CN(C)C(=O)n1cc(C(=O)C2CSC(c3cccnc3)N2)c2ccc(OCc3ccccc3)cc21 (stereo not drawn) [Example 52, 1-dimethylcarbamoyl-6-phenylmethoxy-3-[2-(3-pyridinyl)thiazolid-4-oyl]indole] |
| 13 | CN(C)C(=O)n1cc(C(=O)C2CSC(c3cccnc3)N2)c2cccc(OCc3ccccc3)c21 (stereo not drawn) [Example 51, 1-dimethylcarbamoyl)-7-phenylmethoxy-3-[2-(3-pyridinyl)thiazolid-4-oyl]indole oxalate] |
| 12 | O=C(c1ccccc1)c1cccc2c1ccn2C(=O)C1CSC(c2cccnc2)N1 (stereo not drawn) [Example 7, 1-[2-(3-pyridinyl)thiazolid-4-oyl]-4-benzoylindole dihydrochloride] |
| 88 | Cc1c(C(=O)C2CSC(c3cccnc3)N2)c2ccccc2n1C(=O)N1CCOCC1 (stereo not drawn) [Example 64, 1-(1-morpholinocarbonyl)-2-methyl-3-[2-(3-pyridinyl)thiazolid-4-oyl]indole] |
| 150 | CN(C)C(=O)n1cc(C(=O)[C@@H]2CS[C@H](c3cccnc3)N2C=O)c2ccccc21 (relative stereo) [Example 97, cis-1-Dimethylcarbamoyl-3-[2-(3-pyridinyl)-3-formylthiazolid-4-oyl]indole] |
| 52 | O=C(C1CSC(c2cccnc2)N1)n1ccc2ccc(OCc3ccccc3)cc21 (stereo not drawn) [Example 18, 1-(2-(3-pyridinyl)thiazolid-4-oyl)-6-phenylmethoxyindole oxalate] |

The remaining lines, values behind:

| SMILES | Ki [nM] |
| --- | --- |
| CN(C)C(=O)n1cc(C(=O)C2CSC(c3cccnc3)N2)c2ccc(Cl)cc21 (stereo not drawn) [Example 89, 1-dimethylcarbamoyl-3-[2-(3-pyridinyl)thiazolid-4-oyl]-6-chloroindole] | 1 |
| O=C(c1cn(C(=O)OCc2ccccc2)c2ccccc12)C1CSC(c2cccnc2)N1 (stereo not drawn) [Example 45, 1-phenylmethoxycarbonyl-3-[2-(pyridinyl)thiazolid-4-oyl]indole oxalate] | 3 |
| O=C(c1c[nH]c2cc(OCc3cccnc3)ccc12)C1CSC(c2cccnc2)N1 (stereo not drawn) [Example 76] | 30 |
| O=C(c1c[nH]c2cc(OCc3ccc(F)cc3)ccc12)C1CSC(c2cccnc2)N1 (stereo not drawn) [Example 74, 3-[2-(3-pyridinyl)thiazolid-4-oyl]-6-(4-fluorophenylmethoxy)indole] | 3 |
| Cc1ccc2c(c1)c(C(=O)C1CSC(c3cccnc3)N1)c(C)n2C(=O)N(C)C (stereo not drawn) [Example 69, 1-dimethylcarbamoyl-2,5-dimethyl-3-[2-(3-pyridinyl)thiazolid-4oyl]indole oxalate] | 13 |
| CN(C)C(=O)n1cc(C(=O)C2CSC(c3cccnc3)N2)c2ccc(Oc3ccc(F)cc3)cc21 (stereo not drawn) [Example 71, 1-dimethylcarbamoyl-3-[2-(3-pyridinyl)thiazolid-4-oyl]-6-(4-fluorophenoxy)indole] | 2 |
| O=C(c1c[nH]c2ccccc12)C1CSC(c2cccnc2)N1C(=O)C(F)(F)F (single isomer, unassigned; isomer 2) [Example 103, 3-[2-(3-pyridinyl)-3-trifluoroacetylthiazolid-4-oyl]indole, isomer 2] | 2800 |
| CC(C)(C)OC(=O)n1cc(C(=O)C2CSC(c3cccnc3)N2)c2ccc(OCc3ccccc3)cc21 (stereo not drawn) [Example 35, 1-tert-butoxycarbonyl-6-phenylmethoxy-3-[2-(3-pyridinyl)thiazolid-4-oyl]indole oxalate] | 1 |
| Cc1ccc2c(C(=O)C3CSC(c4cccnc4)N3C=O)cn(C(=O)N(C)C)c2c1 (stereo not drawn) [Example 94, 1-dimethylcarbamoyl-3-[2-(3-pyridinyl)-3-formylthiazolid-4-oyl]-6-methylindole] | 33 |
| Cc1c(C(=O)C2CSC(c3cccnc3)N2)c2ccccc2n1C(=O)OC(C)(C)C (stereo not drawn) [Example 40, 1-tert-butoxycarbonyl-2-methyl-3-[2-(3-pyridinyl)thiazolid-4-oyl]indole oxalate] | 10 |
| O=C(c1c[nH]c2cc(Oc3ccc(F)cc3)ccc12)C1CSC(c2cccnc2)N1 (stereo not drawn) [Example 70, 3-[2-(3-pyridinyl)thiazolid-4-oyl]-6-(4-fluorophenoxy)indole] | 2 |
| CC(C)(C)OC(=O)n1cc(C(=O)C2CSC(c3cccnc3)N2C=O)c2ccccc21 (stereo not drawn) [Example 56, 1-tert-butoxycarbonyl-3-[2-(3-pyridinyl)-3-formylcarbonylthiazolid-4-oyl]indole] | 150 |
| O=C(c1c[nH]c2cc(C#Cc3ccccc3)ccc12)C1CSC(c2cccnc2)N1 (stereo not drawn) [Example 77, 3-[2-(3-pyridinyl)thiazolid-4-oyl]-6-phenylethynylindole] | 9 |

Same assay, conditions: Ki (PAF Receptor Binding Activity), 0.6 nM [3H]C18-PAF, 60 min, 22-23 °C, Ki from IC50 (Cheng and Prusoff)

| SMILES | Ki [nM] |
| --- | --- |
| Cn1cc(C(=O)C2CSC(c3cccnc3)N2)c2ccccc21 (stereo not drawn) [Example 22, 1-methyl-3-[2-3-pyridinyl)thiazolid-4-oyl]indole dihydrochloride] | 13 |
| CCn1cc(C(=O)C2CSC(c3cccnc3)N2)c2ccccc21 (stereo not drawn) [Example 27, 1-ethyl-3-[2-(3-pyridinyl)thiazolid-4-oyl]indole oxalate] | 6 |
| CS(=O)(=O)n1cc(C(=O)C2CSC(c3cccnc3)N2)c2ccccc21 (stereo not drawn) [Example 37, 1-methylsulfonyl-3-[2-(3-pyridinyl)thiazolid-4-oyl-]indole] | 15 |
| O=C(c1cn(CC(F)(F)F)c2ccccc12)C1CSC(c2cccnc2)N1 (stereo not drawn) [Example 59, 1-trifluoroethyl-3-[2-(3-pyridinyl)thiazolid-4-oyl]indole] | 20 |
| Cc1[nH]c2ccccc2c1C(=O)C1CSC(c2cccnc2)N1 (stereo not drawn) [Example 39] | 23 |
| O=C(c1cn(Cc2ccccc2)c2ccccc12)C1CSC(c2cccnc2)N1 (stereo not drawn) [Example 46, 1-phenylmethyl-3-[2-(3-pyridinyl)thiazolid-4-oyl]indole] | 50 |
| O=C(c1c[nH]c2ccccc12)C1CSC(c2cccnc2)N1 (stereo not drawn) [Example 20, 3-[2-(3-pyridinyl)thiazolid-4-oyl]indole oxalate] | 4 |
| CCOC(=O)Cn1cc(C(=O)C2CSC(c3cccnc3)N2)c2ccccc21 (stereo not drawn) [Example 60, 1-ethoxycarbonylmethyl-3-[2-(3-pyridinyl)thiazolid-4-oyl]indole] | 2 |
| Cc1ccc2[nH]c(C)c(C(=O)C3CSC(c4cccnc4)N3)c2c1 (stereo not drawn) [Example 66, 2,5-dimethyl-3-[2-[3-pyridinyl)thiazolid-4-oyl]indole oxalate] | 31 |
